Consider 21 molecules from patent US8026243B2, “[4,5′]Bipyrimidinyl-6,4′-diamine derivatives as protein kinase inhibitors” (Novartis AG, priority 2006, dated 2011).

The assay deals with T1, Ba/F3-TEL-FGFR3 cells (Homo sapiens, UniProt P22607).
T1 construct: fused on or other part: The N-terminal oligomerising part of TEL (ETV6) is fused before the intracellular kinase part of FGFR3; P41212 (Transcription factor ETV6)
T1 sequence (P22607 whole entry, change not shown, the tested form may be a part): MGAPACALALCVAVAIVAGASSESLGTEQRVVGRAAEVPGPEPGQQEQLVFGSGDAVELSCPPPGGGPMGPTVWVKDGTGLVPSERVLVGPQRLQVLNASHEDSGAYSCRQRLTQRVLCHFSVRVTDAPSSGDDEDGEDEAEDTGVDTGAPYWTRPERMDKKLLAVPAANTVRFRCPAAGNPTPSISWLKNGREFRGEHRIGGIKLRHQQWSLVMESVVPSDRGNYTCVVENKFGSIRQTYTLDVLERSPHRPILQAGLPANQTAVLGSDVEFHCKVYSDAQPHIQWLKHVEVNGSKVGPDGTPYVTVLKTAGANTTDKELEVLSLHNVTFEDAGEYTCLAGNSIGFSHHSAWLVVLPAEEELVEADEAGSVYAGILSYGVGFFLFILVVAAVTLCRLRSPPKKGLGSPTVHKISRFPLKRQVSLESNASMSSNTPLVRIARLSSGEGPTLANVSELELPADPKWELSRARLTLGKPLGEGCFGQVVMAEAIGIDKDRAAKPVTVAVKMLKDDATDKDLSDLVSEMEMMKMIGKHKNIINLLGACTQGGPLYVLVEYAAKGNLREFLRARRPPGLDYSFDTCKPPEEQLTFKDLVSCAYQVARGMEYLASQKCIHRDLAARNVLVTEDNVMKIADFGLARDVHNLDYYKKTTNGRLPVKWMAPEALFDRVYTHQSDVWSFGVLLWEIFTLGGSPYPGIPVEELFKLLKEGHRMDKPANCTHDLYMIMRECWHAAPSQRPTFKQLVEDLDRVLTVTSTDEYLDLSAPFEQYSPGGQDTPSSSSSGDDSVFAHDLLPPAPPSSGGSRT
The assay can be described thus: FGFR3 cellular assay: proliferation of transformed Ba/F3-TEL-FGFR3 cells (AlamarBlue). The format is cell-based. The conditions noted are these: 48 hours incubation, class symbols. On the procedure:
Compounds of the invention are tested for their ability to inhibit transformed Ba/F3-TEL-FGFR3 cells proliferation, which is dependent on FGFR3 cellular kinase activity. Ba/F3-TEL-FGFR3 are cultured up to 800,000 cells/mL in suspension, with RPMI 1640 supplemented with 10% fetal bovine serum as the culture medium. Cells are dispensed into 384-well format plate at 5000 cell/well in […], culture medium. Compounds of the invention are dissolved and diluted in dimethylsulfoxide (DMSO). Twelve points 1:3 serial dilutions are made into DMSO to create concentrations gradient ranging typically from 10 mM to 0.05 μM. Cells are added with 50 nL of diluted compounds and incubated for 48 hours in cell culture incubator. AlamarBlue® (TREK Diagnostic Systems), which can be used to monitor the reducing environment created by proliferating cells, are added to cells at final concentration of 10%. After additional four hours of incubation in a 37° C. cell culture incubator, fluorescence signals from reduced AlamarBlue® (Excitation at 530 nm, Emission at 580 nm) are quantified on Analyst GT (Molecular Devices Corp.). IC50 values are calculated by linear regression analysis of the percentage inhibition of each compound at 12 concentrations.
For orientation: Alamar Blue is a resazurin reagent that responds to reducing activity.
The term GI50 denotes the concentration at which growth is held to half of that of the control. Molecule `CCN1CCN(c2ccc(Nc3cc(-c4cncnc4Nc4c(Cl)c(OC)cc(OC)c4Cl)ncn3)cc2)CC1` [Compound 10, N4′-(2,6-Dichloro-3,5-dimethoxy-phenyl)-N6-[4-(4-ethyl-piperazin-1-yl)-phenyl]-[4,5′]bipyrimidinyl-6,4′-diamine] had a GI50 of under 100 nM. As for `CCNC(=O)c1cc(OC)c(Cl)c(Nc2ncncc2-c2cc(Nc3ccc(N4CCN(CC)CC4)cn3)ncn2)c1Cl` [Compound 42, 2,4-Dichloro-N-ethyl-3-{6-[5-(4-ethyl-piperazin-1-yl)-pyridin-2-ylamino]-[4,5′]bipyrimidinyl-4′-ylamino}-5-methoxy-benzamide], the figure is under 100 nM. In turn, `CCN1CCN(Cc2ccc(Nc3cc(-c4cncnc4Nc4c(Cl)c(OC)cc(C(=O)NC5CC5)c4Cl)ncn3)nc2)CC1` [Compound 58, 2,4-Dichloro-N-cyclopropyl-3-{6-[5-(4-ethyl-piperazin-1-ylmethyl)-pyridin-2-ylamino]-[4,5′]bipyrimidinyl-4′-ylamino}-5-methoxy-benzamide] had a 50% growth inhibitory concentration (GI50) of under 100 nM.

`CCN1CCN(c2ccc(Nc3cc(-c4cncnc4Nc4cc(OC)cc(OC)c4F)ncn3)nc2)CC1` [Compound 72, N6-[5-(4-Ethyl-piperazin-1-yl)-pyridin-2-yl]-N4′-(2-fluoro-3,5-dimethoxy-phenyl)-[4,5′]bipyrimidinyl-6,4′-diamine] displayed a GI50 of under 100 nM. To `COc1cc(Nc2ncncc2-c2cc(Nc3cc(CN4CCOCC4)ccn3)ncn2)c(F)c(OC)c1` [Compound 71, N4′-(2-Fluoro-3,5-dimethoxy-phenyl)-N6-(4-morpholin-4-ylmethyl-pyridin-2-yl)-[4,5′]bipyrimidinyl-6,4′-diamine] belongs under 100 nM. As for `COC(=O)c1cc(OC)c(Cl)c(Nc2ncncc2-c2cc(Nc3ccc(CN4CCOCC4)cn3)ncn2)c1Cl` [Compound 27, 2,4-Dichloro-5-methoxy-3-[6-(5-morpholin-4-ylmethyl-pyridin-2-ylamino)-[4,5′]bipyrimidinyl-4′-ylamino]-benzoic acid methyl ester], the figure is under 100 nM; as for `CCNC(=O)c1cc(OC)c(Cl)c(Nc2ncncc2-c2cc(Nc3ccc(CN4CCCC4)cn3)ncn2)c1Cl` [Compound 35, 2,4-Dichloro-N-ethyl-5-methoxy-3-[6-(5-pyrrolidin-1-ylmethyl-pyridin-2-ylamino)-[4,5′]bipyrimidinyl-4′-ylamino]-benzamide], under 100 nM; as for `COc1cc(OC)c(Cl)c(Nc2ncncc2-c2cc(Nc3ccc(CN4CCN(C(C)=O)CC4)cn3)ncn2)c1Cl` [Compound 16, 1-(4-{6-[4′-(2,6-Dichloro-3,5-dimethoxy-phenylamino)-[4,5′]bipyrimidinyl-6-ylamino]-pyridin-3-ylmethyl}-piperazin-1-yl)-ethanone], under 100 nM.

For the molecule `COc1cc(OC)c(F)c(Nc2ncncc2-c2cc(Nc3ccc(CN4CCN(C(C)=O)CC4)cn3)ncn2)c1F` [Compound 66, 1-(4-{6-[4′-(2,6-Difluoro-3,5-dimethoxy-phenylamino)-[4,5′]bipyrimidinyl-6-ylamino]-pyridin-3-ylmethyl}-piperazin-1-yl)-ethanone], the concentration for 50% growth inhibition (GI50) is under 100 nM.

Consider `COc1cc(OC)c(Cl)c(Nc2ncncc2-c2cc(Nc3cc(CN4CCOCC4)ccn3)ncn2)c1C` [Compound 54, N4′-(2-Chloro-3,5-dimethoxy-6-methyl-phenyl)-N6-(4-morpholin-4-ylmethyl-pyridin-2-yl)-[4,5′]bipyrimidinyl-6,4′-diamine], for which the GI50 was under 100 nM. `CCNC(=O)c1cc(OC)c(Cl)c(Nc2ncncc2-c2cc(Nc3ccc(CCN4CCOCC4)cn3)ncn2)c1Cl` [Compound 32, 2,4-Dichloro-N-ethyl-5-methoxy-3-{6-[5-(2-morpholin-4-yl-ethyl)-pyridin-2-ylamino]-[4,5′]bipyrimidinyl-4′-yl-amino}-benzamide] returned a GI50 of 100 to 250 nM. Take `COc1cc(OC)c(F)c(Nc2ncncc2-c2cc(Nc3cc(CN4CCOCC4)ccn3)ncn2)c1F` [Compound 65, N4′-(2,6-Difluoro-3,5-dimethoxy-phenyl)-N6-(4-morpholin-4-ylmethyl-pyridin-2-yl)-[4,5′]bipyrimidinyl-6,4′-diamine]: the GI50 was under 100 nM. To `COc1cc(OC)c(Cl)c(Nc2ncncc2-c2cc(Nc3ccc(CN4CCN(CCO)CC4)cn3)ncn2)c1Cl` [Compound 75, 2-(4-{6-[4′-(2,6-Dichloro-3,5-dimethoxy-phenylamino)-[4,5′]bipyrimidinyl-6-yl-amino]-pyridin-3-ylmethyl}-piperazin-1-yl)-ethanol] belongs under 100 nM; to `COc1cc(OC)c(F)c(Nc2ncncc2-c2cc(Nc3cccc(C(C)O)c3)ncn2)c1F` (stereo not drawn) [Compound 78, 1-{3-[4′-(2,6-Difluoro-3,5-dimethoxy-phenylamino)-[4,5′]bipyrimidinyl-6-ylamino]-phenyl}-ethanol], under 100 nM; to `COc1cc(OC)c(Cl)c(Nc2ncncc2-c2cc(Nc3cc(CN4CCOCC4)ccn3)ncn2)c1F` [Compound 46, N4′-(2-Chloro-6-fluoro-3,5-dimethoxy-phenyl)-N6-(4-morpholin-4-ylmethyl-pyridin-2-yl)-[4,5′]bipyrimidinyl-6,4′-diamine], under 100 nM.

`CCNC(=O)c1cc(OC)c(Cl)c(Nc2ncncc2-c2cc(Nc3cc(CN4CCN(C)CC4)ccn3)ncn2)c1Cl` [Compound 30, 2,4-Dichloro-N-ethyl-5-methoxy-3-{6-[4-(4-methyl-piperazin-1-ylmethyl)-pyridin-2-ylamino]-[4,5′]bipyrimidinyl-4′-ylamino}-benzamide] had a GI50 of under 100 nM. To `COc1cc(OC)c(Cl)c(Nc2ncncc2-c2cc(Nc3ccc(CN4CCN(CCO)CC4)cn3)ncn2)c1C` [Compound 76, 2-(4-{6-[4′-(2-Chloro-3,5-dimethoxy-6-methyl-phenylamino)-[4,5′]bipyrimidinyl-6-ylamino]-pyridin-3-ylmethyl}-piperazin-1-yl)-ethanol] belongs under 100 nM; to `COc1cc(OC)c(Cl)c(Nc2nccnc2-c2cc(Nc3cc(CN4CCOCC4)ccn3)ncn2)c1Cl` [Compound 96, {6-[3-(2,6-Dichloro-3,5-dimethoxy-phenylamino)-pyrazin-2-yl]-pyrimidin-4-yl}-(4-morpholin-4-ylmethyl-pyridin-2-yl)-amine], under 100 nM; to `COc1cc(OC)c(Cl)c(Nc2ncncc2-c2cc(Nc3ccc(CN4CCN(C(=O)CO)CC4)cn3)ncn2)c1Cl` [Compound 87, 1-(4-{6-[4′-(2,6-Dichloro-3,5-dimethoxy-phenylamino)-[4,5′]bipyrimidinyl-6-ylamino]-pyridin-3-ylmethyl}-piperazin-1-yl)-2-hydroxy-ethanone], under 100 nM. `COc1cc(OC)c(Cl)c(Nc2ncncc2-c2cc(Nc3ccc(CN4CCN(C(C)=O)CC4)cn3)ncn2)c1F` [Compound 61, 1-(4-{6-[4′-(2-Chloro-6-fluoro-3,5-dimethoxy-phenylamino)-[4,5′]bipyrimidinyl-6-ylamino]-pyridin-3-ylmethyl}-piperazin-1-yl)-ethanone] returned a GI50 of under 100 nM. The molecule `COc1cc(C(=O)Nc2cccc(C(F)(F)F)c2)c(Cl)c(Nc2ncncc2-c2cc(Nc3ccc(CN4CCOCC4)cn3)ncn2)c1Cl` [Compound 92, 2,4-dichloro-5-methoxy-3-(6-(5-(morpholinomethyl)pyridin-2-ylamino)-4,5′-bipyrimidin-4′-ylamino)-N-(3-(trifluoromethyl)phenyl)benzamide] gave a GI50 of under 100 nM.
